Several values for one entry are separate records, joined by “and”; a condition that tells them apart may be missing. Identical values can stand only once.
Legend:
[1] = Meglumine iothalamate clearance by AUC method, dog; type: in vivo, female beagle dogs; conditions: healthy dog 1919 (two tests at an interval of two months), 3% meglumine iothalamate solution 0.3 mℓ/kg i.v.
Method: A total of […] female beagle dogs (body weight: 8.5 to 14 kg) consisting of one healthy dog (dog No. 1919), three partially nephrectomized dogs (chronic renal failure model) (dog Nos. 1367, 1253, and 1104) were used.
A 3% inulin-containing iothalamate solution was administered once in the amount of 0.3 mℓ/kg to each beagle dog from its foreleg vein. The meglumine iothalamate in the 3% inulin-containing iothalamate solution was obtained by diluting a conray injection solution (60 W/V%) (meglumine iothalamate injection solution of the Japanese Pharmacopoeia, available from DAIICHI PHARMACEUTICAL CO., LTD.) with saline to adjust the concentration to 3%.
Blood collection operations were performed five times with intervals after the administration. The blood collection times were, e.g., 5 min, 20 min, 40 min, 60 min, and 90 min after the administration for the healthy dog, and, e.g., 5 min, 40 min, 80 min, 120 min, and 180 min after the administration for other dogs.
The concentration of meglumine iothalamate in the plasma was measured as follows. 400 µℓ of a 0.1N-HCl-methanol (1 : 9) solution mixture were added to 100 µℓ of a dog plasma sample, and the resultant solution was stirred well and subjected to centrifugal separation at 16,000 rpm for 10 min. The resultant supernatant was analyzed by liquid chromatography. […]

[2] = Meglumine iothalamate clearance from one plasma sample by first standard function, dog; type: in vivo, female beagle dogs; conditions: healthy dog 1919 (two tests), first standard function (Fig. 18), per blood collection time (20-90 min)
Method: A first standard function [CL × T - Cp/D curve] was formed following the same procedures as in Example 1. The first clearance calculation program 34 was executed. In this execution, the clearances of the four dogs (two tests were conducted for dog Nos. 1919 and 1367 at an interval of two months) in Example 12 were calculated by the first standard function (Fig. 18) obtained in Example 12, using the data for the respective blood collection times (except for the values obtained 5 min after the administration). More specifically, the ratio values of the meglumine iothalamate concentrations (Cp) in the plasma samples corresponding to the respective blood collection times to the meglumine iothalamate dose (D) were calculated, and the products of the clearance (CL) and the blood collection times (T) were calculated from the first standard function using the ratio values. The products were divided by the blood collection times (T), respectively, thereby obtaining the clearances (CL).

clearance ([1]; female, beagle, dog, plasma, iv, 0.3 mℓ/kg, read-out: Conventional Method: Clearance (1)): 45.6 mL/min | Conventional Method: Clearance (1) [1]: 49.1 mL/min | clearance ([2]; female, beagle, dog, plasma, intravenous, 0.3 mℓ/kg, read-out: Method of Present Invention: Clearance (2)): 52.1 mL/min | Method of Present Invention: Clearance (2) ([2]; blood collected at 20 min): 57.4 mL/min | Method of Present Invention: Clearance (2) ([2]; blood collected at 40 min): 53.0 mL/min | Method of Present Invention: Clearance (2) ([2]; blood collected at 50 min): 48.9 mL/min | Method of Present Invention: Clearance (2) ([2]; blood collected at 60 min): 52.5 mL/min | Method of Present Invention: Clearance (2) ([2]; blood collected at 70 min): 48.4 mL/min | Method of Present Invention: Clearance (2) ([2]; blood collected at 90 min): 42.0 mL/min and 43.9 mL/min
SMILES: CNC(=O)c1c(I)c(NC(C)=O)c(I)c(C(=O)O)c1I [Iothalamic Acid, N-methylglucamine-5-acetamido-2,4,6-triiodo-N-methylisophthalate]

Reference: EP0740252A2, “Apparatus, method, and standard curve for measuring clearance” (KUREHA KAGAKU KOGYO KABUSHIKI KAISHA, priority 1995, dated 1996)
